Values quoted from earlier work as cited in publication PMC7466129, “Solid Lipid Nanoparticles for Duodenum Targeted Oral Delivery of Tilmicosin” (Pharmaceutics, 2020).
In brackets after ≈: the same amount, converted by molar mass.

Tests used:
Mycoplasma = tested on: Mycoplasma; set-up: method as in PMID 29149886
[1] = set-up: method as in PMID 31614726; conditions: 100 °C, 30 min
[2] = tested on: Actinobacillus pleuropneumoniae; set-up: method as in PMID 29139136

CC[C@H]1OC(=O)C[C@@H](O)[C@H](C)[C@@H](O[C@@H]2O[C@H](C)[C@@H](O)[C@H](N(C)C)[C@H]2O)[C@@H](CCN2C[C@H](C)C[C@H](C)C2)C[C@@H](C)C(=O)/C=C/C(C)=C/[C@@H]1CO[C@@H]1O[C@H](C)[C@@H](O)[C@@H](OC)[C@H]1OC [tilmicosin, Tilmicosin]
minimum inhibitory concentration (MIC) (Mycoplasma): ≤ 0.25 µg/mL
saturation solubility in carnauba wax [1]: 50%
saturation solubility in hydrogenated castor oil [1]: 25%
minimum inhibitory concentration (MIC) [2]: 0.5 µg/mL (≈ 0.575 µM)
